This note sets out measurements from US9914732B2, “Diazabicyclo[4.3.1]decane derivatives for treatment of psychiatric disorders” (Max-Planck-Gesellschaft zur Forderung der Wissenschaften …, priority 2014, dated 2018).

Where only a bound is given, the exact number is not on record here.

For assay [1], the target named is T1, FKBP52 (Homo sapiens, UniProt Q02790).
T1 sequence (Q02790 50-138 limits assumed): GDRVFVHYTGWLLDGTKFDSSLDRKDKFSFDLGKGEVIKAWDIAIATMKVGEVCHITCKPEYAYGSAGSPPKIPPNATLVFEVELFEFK
Nature of the assay: Fluorescence polarization (FP) assay, binding to the FK506-binding domain of FKBP52. The conditions noted are these: FK506-binding domain of FKBP52 (FKBP52FK1), competition with fluorescent ligand 2b. The procedure:
(§1) In the present invention, in vitro fluorescence polarization assays with the compounds of the general formula (I) were performed to determine the binding affinities to FKBP51 and FKBP52 or to the isolated FK506-binding domains of FKBP51 and FKBP52 ([…]). Binding to the isolated FK506-binding domains is reliably indicative of binding to the full length proteins. The affinities for the isolated FK506-binding domains and for full-length FKBP51 or FKBP52 are the same for all compounds tested so far (Kozany et al, ChemBioChem 2009, 10, 1402-1410).
(§2) Example 11: Fluorescence Polarization (FP) Assays
(§3) In-vitro fluorescence polarization assays were performed to determine the binding affinities for FKBP51 and 52 according to a literature procedure (Kozany, C.; Marz, A.; Kress, C.; Hausch, F., Fluorescent probes to characterise FK506-binding proteins. Chembiochem 2009, 10, (8), 1402-10).
(§4) For fluorescence polarization assays the fluorescent ligand 2b was dissolved in HEPES (20 mm, pH 8), Triton-X100 (0.01%), at double the concentration required for the final sample. The target protein was also diluted in this assay buffer at double the highest concentration required for the final sample. This protein stock was used for a 1:1 serial dilution.
(§5) The fluorescent ligand 2b was diluted in assay buffer to a concentration double the final concentration (20 nM 2b). The inventive compound was dissolved in DMSO to reach a 100-times concentrated stock solution. This was used for a 1:1 serial dilution in DMSO. Every sample of this serial dilution was diluted by a factor of 50 in assay buffer supplemented with ligand 2b to achieve a 2× concentrated mixture of ligand 2b and the inventive compound. To this competitive ligand double the protein concentration for 2b assay: FKBP51FK1 560 nM (2×280 nM) or FKBP52FK1 800 nM (2×400 nM) diluted in assay buffer was added.
(§6) The samples were transferred to black 384-well assay plates (No.: 3575; Corning Life Sciences). After incubation at room temperature for 30 min the fluorescence anisotropy was measured (GENios Pro, Tecan, Männedorf, Switzerland) by using an excitation filters of 485/20 nm and emission filters of 535/25 nm. The binding assays were performed in duplicates in the plate format.
(§7) The competition curves were analyzed by using SigmaPlot9. Data were fitted to a four parameter logistic curve to deduce the IC50 values. For the analysis of K1 values, data were fitted to the following equation (Z. X. Wang, FEBS Lett. 1995, 360, 111-114). A=(Amax−Amin)/[L]t×(([L]t×((2×((Klig+Kcomp+[L]t+[I]t−[R]t)^2−3×(Kcomp×([L]t−[R]t)+Klig×([I]t−[R]t)+[…]))^0.5×COS(ARCCOS((−2×(Klig+Kcomp+[L]t+[I]t−[R]t)^3+9×(Klig+Kcomp+[L]t+[I]t−[R]t)×(Kcomp×([L]t−[R]t)+Klig×([I]t−[R]t)+Klig×Kcomp)−27×(−1×Klig×Kcomp×[R]t))/(2×((((Klig+Kcomp+[L]t+[I]t−[R]t)^2−3×(Kcomp×([L]t−[R]t)+Klig×([I]t−[R]t)+Klig×Kcomp))^3)^0.5)))/3))−(Klig+Kcomp+[L]t+[I]t−[R]t)))/((3×Klig)+((2×((Klig+Kcomp+[L]t+[I]t−[R]t)^2−3×(Kcomp×([L]t−[R]t)+Klig×([I]t−[R]t)+Klig×Kcomp))^0.5×COS(ARCCOS((−2×(Klig+Kcomp+[L]t+[I]t−[R]t)^3+9×(Klig+Kcomp+[L]t+[I]t−[R]t)×(Kcomp×([L]t−[R]t)+Klig×([I]t−[R]t)+Klig×Kcomp)−27×(−1×Klig×Kcomp×[R]t))/(2×((((Klig+Kcomp+[L]t+[I]t−[R]t)^2−3×(Kcomp×([L]t−[R]t)+Klig×([I]t−[R]t)+Klig×Kcomp))^3)^0.5)))/3))−(Klig+Kcomp+[L]t+[I]t−[R]t)))+Amin
(§8) In this equation Klig and Kcomp stand for the Kd values of the used tracer or competing inhibitor, [I]t is referring to the total concentration of the titrated inhibitor.
(In general: Polarisation of emitted light reports the rotation of a fluorescent probe.)

Assay [2] concerns the target T2, FKBP51 (Homo sapiens, UniProt Q13451).
T2 sequence (Q13451 42-130 limits assumed): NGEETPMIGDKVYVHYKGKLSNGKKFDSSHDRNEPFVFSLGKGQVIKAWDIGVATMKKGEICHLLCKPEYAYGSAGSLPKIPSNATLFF
Briefly: Fluorescence polarization (FP) assay, binding to the FK506-binding domain of FKBP51. As to conditions: FK506-binding domain of FKBP51 (FKBP51FK1), competition with fluorescent ligand 2b. The procedure:
as §1, §2, §3, §4, §5, §6, §7, §8

The term Ki denotes a dissociation constant, usually derived from enzyme kinetics or from competition with a known ligand. Read a high Ki as a looser hold on the target.

In the case of `CC[C@H]1CN(CCOC)C(=O)[C@@H]2CCC[C@H]1N2S(=O)(=O)c1cc(Cl)cc(Cl)c1` [Compound B15, (1S,5S,6R)-10-((3,5-dichlorophenyl)sulfonyl)-5-ethyl-3-(2-methoxyethyl)-3,10-diazabicyclo[4.3.1]decan-2-one], the inhibition constant (Ki) in assay [1] and in assay [2] was ≤ 100 nM each time.
For `C=C[C@@H]1CN(Cc2ccccn2)C(=O)[C@@H]2CCC[C@H]1N2S(=O)(=O)c1cc(Cl)c(NC(C)=O)c(Cl)c1` [Compound K22, N-(2,6-dichloro-4-(((1S,5R,6R)-2-oxo-3-(pyridin-2-ylmethyl)-5-vinyl-3,10-diazabicyclo[4.3.1]decan-10-yl)sulfonyl)phenyl)acetamide], the Ki in assay [1] and in assay [2] was ≤ 100 nM throughout.
As to `C=C[C@@H]1CN(Cc2ccccn2)C(=O)[C@@H]2CCC[C@H]1N2S(=O)(=O)c1cccc(C(=O)OC)c1` [Compound K23, methyl 3-(((1S,5R,6R)-2-oxo-3-(pyridin-2-ylmethyl)-5-vinyl-3,10-diazabicyclo[4.3.1]decan-10-yl)sulfonyl)benzoate], the Ki in assay [1] and in assay [2] was 500 to 1000 nM throughout.
With `C=CC1CN(Cc2ccccn2)C(=O)C2CCCC1N2S(=O)(=O)c1cccc(F)c1` (stereo in doubt) [Compound K15, (1S,5R,6R)-10-((3-fluorophenyl)sulfonyl)-3-(pyridin-2-ylmethyl)-5-vinyl-3,10-diazabicyclo[4.3.1]decan-2-one], the Ki in assay [1] and in assay [2] was 100 to 500 nM throughout.
For `C=CC1CN(CC(N)=O)C(=O)C2CCCC1N2S(=O)(=O)c1cc(Cl)cc(Cl)c1` (stereo in doubt) [Compound J11, 2-((1S,5R,6R)-10-((3,5-dichlorophenyl)sulfonyl)-2-oxo-5-vinyl-3,10-diazabicyclo[4.3.1]decan-3-yl)acetamide], the Ki in assay [1] and in assay [2] was 100 to 500 nM each time.
Take `COc1ccc(OCCN2CCC3CCCC(C2=O)N3S(=O)(=O)c2ccc3ncsc3c2)cc1OC` (stereo not drawn) [Ref. 2, reference compound]: the inhibitory constant (Ki) in assay [1] and in assay [2] was 1000 to 5000 nM in each case.
Turning to `COC[C@H]1CN(Cc2cnn[nH]2)C(=O)[C@@H]2CCC[C@H]1N2S(=O)(=O)c1ccc(-c2ncccn2)cc1` [Compound N27, (1S,5S,6R)-3-((1H-1,2,3-triazol-5-yl)methyl)-5-(methoxymethyl)-10-((4-(pyrimidin-2-yl)phenyl)sulfonyl)-3,10-diazabicyclo[4.3.1]decan-2-one], the Ki in assay [1] and in assay [2] was ≤ 100 nM each time.
As to `CN(C)C[C@H]1CN(Cc2ccccn2)C(=O)[C@@H]2CCC[C@H]1N2S(=O)(=O)c1cc(Cl)cc(Cl)c1` [Compound M2, (1S,5S,6R)-10-((3,5-dichlorophenyl)sulfonyl)-5-((dimethylamino)methyl)-3-(pyridin-2-ylmethyl)-3,10-diazabicyclo[4.3.1]decan-2-one], the Ki in assay [1] and in assay [2] was ≤ 100 nM each time.
For the compound `C#CCN1C[C@H](COC)[C@H]2CCC[C@@H](C1=O)N2S(=O)(=O)c1cc(Br)cc(C(=O)OC)c1` [Compound N11, methyl 3-bromo-5-(((1S,5S,6R)-5-(methoxymethyl)-2-oxo-3-(prop-2-yn-1-yl)-3,10-diazabicyclo[4.3.1]decan-10-yl)sulfonyl)benzoate], the Ki in assay [1] and in assay [2] was 100 to 500 nM throughout.
For the compound `C=CC1CN(CC(=O)O)C(=O)C2CCCC1N2S(=O)(=O)c1cc(Cl)cc(Cl)c1` (stereo in doubt) [Compound J10, 2-((1S,5R,6R)-10-((3,5-dichlorophenyl)sulfonyl)-2-oxo-5-vinyl-3,10-diazabicyclo[4.3.1]decan-3-yl)acetic acid], the Ki in assay [1] and in assay [2] was 100 to 500 nM in each case.
Consider `C=CC1CN(Cc2ccccn2)C(=O)C2CCCC1N2S(=O)(=O)c1ccccc1` (stereo in doubt) [Compound K13, (1S,5R,6R)-10-(phenylsulfonyl)-3-(pyridin-2-ylmethyl)-5-vinyl-3,10-diazabicyclo[4.3.1]decan-2-one], for which the inhibition constant (Ki) in assay [1] and in assay [2] was 500 to 1000 nM each time.
For `O=C1C2CCCC(C(CO)CN1CCO)N2S(=O)(=O)c1cc(Cl)cc(Cl)c1` (stereo in doubt) [Compound C1, (1S,5R,6R)-10-((3,5-dichlorophenyl)sulfonyl)-3-(2-hydroxyethyl)-5-(hydroxymethyl)-3,10-diazabicyclo[4.3.1]decan-2-one], the inhibition constant Ki in assay [1] and in assay [2] was ≤ 100 nM in each case.
Consider `COc1ccc(OCCN2C[C@H](C(C)O)C3CCCC(C2=O)N3S(=O)(=O)c2cc(Cl)cc(Cl)c2)cc1OC` (stereo in doubt) [Compound D7, (1S,5S,6R)-10-((3,5-dichlorophenyl)sulfonyl)-3-(2-(3,4-dimethoxyphenoxy)ethyl)-5-((R)-1-hydroxyethyl)-3,10-diazabicyclo[4.3.1]decan-2-one], for which the Ki in assay [1] and in assay [2] was ≤ 100 nM each time.
As for `COc1ccc(OCCN2C[C@H](C(C)O)C3CCCC(C2=O)N3S(=O)(=O)c2cc(Cl)cc(Cl)c2)cc1OC` (stereo in doubt) [Compound D6, (1S,5S,6R)-10-((3,5-dichlorophenyl)sulfonyl)-3-(2-(3,4-dimethoxyphenoxy)ethyl)-5-((R)-1-hydroxyethyl)-3,10-diazabicyclo[4.3.1]decan-2-one], the Ki in assay [1] and in assay [2] was ≤ 100 nM throughout.
As for `C=C[C@@H]1CN(CCCCOC)C(=O)[C@@H]2CCC[C@H]1N2S(=O)(=O)c1cc(Cl)cc(Cl)c1` [Compound J3, (1S,5R,6R)-10-((3,5-dichlorophenyl)sulfonyl)-3-(4-methoxybutyl)-5-vinyl-3,10-diazabicyclo[4.3.1]decan-2-one], the Ki in assay [1] and in assay [2] was 500 to 1000 nM each time.
As to `COC[C@H]1CN(Cc2cnn[nH]2)C(=O)[C@@H]2CCC[C@H]1N2S(=O)(=O)c1cccnc1` [Compound N25, (1S,5S,6R)-3-((1H-1,2,3-triazol-5-yl)methyl)-5-(methoxymethyl)-10-(pyridin-3-ylsulfonyl)-3,10-diazabicyclo[4.3.1]decan-2-one], the Ki in assay [1] and in assay [2] was ≤ 100 nM throughout.
As to `C=CC1CN(Cc2ccccn2)C(=O)C2CCCC1N2S(=O)(=O)c1cc(Br)cc(Br)c1` (stereo in doubt) [Compound K16, (1S,5R,6R)-10-((3,5-dibromophenyl)sulfonyl)-3-(pyridin-2-ylmethyl)-5-vinyl-3,10-diazabicyclo[4.3.1]decan-2-one], the Ki in assay [1] and in assay [2] was ≤ 100 nM each time.
Take `C#CCN1C[C@H](COC)[C@H]2CCC[C@@H](C1=O)N2S(=O)(=O)c1cc(Br)cc(Br)c1` [Compound N3, (1S,5S,6R)-10-((3,5-dibromophenyl)sulfonyl)-5-(methoxymethyl)-3-(prop-2-yn-1-yl)-3,10-diazabicyclo[4.3.1]decan-2-one]: the Ki in assay [1] and in assay [2] was 100 to 500 nM throughout.
